Experimental data from ChEMBL document CHEMBL4428075, “New antiproliferative 7-(4-(N-substituted carbamoylmethyl)piperazin-1-yl) derivatives of ciprofloxacin induce cell cycle arrest at G2/M phase” (Bioorg Med Chem, 2016).

Key:
WI-38 = experiment: Antiproliferative activity against human WI38 cells after 24 hrs by BrdU incorporation assay; assay type: cell-based; conditions: WI-38, 24 h
A549 [1] = experiment: Induction of cell cycle arrest in human A549 cells assessed as accumulation at G1 phase at 1 uM after 24 hrs by FITC-labeled anti-BrdU antibody/7AAD staining based FACS calibur flow cytometric analysis (reference value: 65.9 %); assay type: functional
A549 [2] = experiment: Induction of cell cycle arrest in human A549 cells assessed as accumulation at G2/M phase at 1 uM after 24 hrs by FITC-labeled anti-BrdU antibody/7AAD staining based FACS calibur flow cytometric analysis (reference value: 12.61 %); assay type: functional
A549 [3] = experiment: Induction of cell cycle arrest in human A549 cells assessed as accumulation at sub G1 phase at 1 uM after 24 hrs by FITC-labeled anti-BrdU antibody/7AAD staining based FACS calibur flow cytometric analysis (reference value: 0.82 %); assay type: functional
A549 [4] = experiment: Induction of cell cycle arrest in human A549 cells assessed as accumulation at S phase at 1 uM after 24 hrs by FITC-labeled anti-BrdU antibody/7AAD staining based FACS calibur flow cytometric analysis (reference value: 20.9 %); assay type: functional
A549 [5] = experiment: Antiproliferative activity against human A549 cells after 24 hrs by BrdU incorporation assay; assay type: functional, cell-based; conditions: A549, 24 h
A549 [6] = experiment: Induction of cell cycle arrest in human A549 cells assessed as accumulation at sub G1 phase at 100 uM after 24 hrs by FITC-labeled anti-BrdU antibody/7AAD staining based FACS calibur flow cytometric analysis (reference value: 0.82 %); assay type: functional
A549 [7] = experiment: Induction of cell cycle arrest in human A549 cells assessed as accumulation at G2/M phase at 100 uM after 24 hrs by FITC-labeled anti-BrdU antibody/7AAD staining based FACS calibur flow cytometric analysis (reference value: 12.61 %); assay type: functional
A549 [8] = experiment: Induction of cell cycle arrest in human A549 cells assessed as accumulation at G1 phase at 100 uM after 24 hrs by FITC-labeled anti-BrdU antibody/7AAD staining based FACS calibur flow cytometric analysis (reference value: 65.9 %); assay type: functional
A549 [9] = experiment: Induction of cell cycle arrest in human A549 cells assessed as accumulation at S phase at 100 uM after 24 hrs by FITC-labeled anti-BrdU antibody/7AAD staining based FACS calibur flow cytometric analysis (reference value: 20.9 %); assay type: functional

| SMILES | IC50 (WI-38) [µM] | IC50 (A549 [5]) [µM] | also measured |
| --- | --- | --- | --- |
| COc1cccc2c1C(=O)c1c(O)c3c(c(O)c1C2=O)C[C@@](O)(C(=O)CO)C[C@@H]3O[C@H]1C[C@H](N)[C@H](O)[C@H](C)O1 [DOXORUBICIN] | 12.3 | – | Activity (A549 [1]): 56.5%; Activity (A549 [2]): 22.5%; Activity (A549 [3]): 6.75%; Activity (A549 [4]): 15.4% |
| O=C(CN1CCN(c2cc3c(cc2F)c(=O)c(C(=O)O)cn3C2CC2)CC1)Nc1ccccc1 | > 100 | > 100 | – |
| O=C(CN1CCN(c2cc3c(cc2F)c(=O)c(C(=O)O)cn3C2CC2)CC1)NC1CCCCC1 | > 100 | 20.7 | – |
| Cc1ccc(NC(=O)CN2CCN(c3cc4c(cc3F)c(=O)c(C(=O)O)cn4C3CC3)CC2)cc1 | > 100 | 23.6 | – |
| COc1ccccc1NC(=O)CN1CCN(c2cc3c(cc2F)c(=O)c(C(=O)O)cn3C2CC2)CC1 | > 100 | > 100 | – |
| O=C(O)c1cn(C2CC2)c2cc(N3CCNCC3)c(F)cc2c1=O [CIPROFLOXACIN] | > 100 | > 100 | Activity (A549 [6]): 9.5%; Activity (A549 [7]): 16.8%; Activity (A549 [8]): 61%; Activity (A549 [9]): 3.8% |
